Reference: ChEMBL document CHEMBL3044741, “Synthesis of novel biologically active methylene derivatives of sydnones” (Med Chem Res, 2013)
Values after ≈ are worked out from the molar mass of the structure shown.

Legend:
Hs-578T = assay: Cytotoxicity against human Hs 578T assessed as cell growth at high concentration; type: functional
MDA-MB-231 = assay: Cytotoxicity against human MDA-MB-231 assessed as cell growth at high concentration; type: functional
TK-10 = assay: Cytotoxicity against human TK10 assessed as cell growth at high concentration; type: functional
UACC-62 = assay: Cytotoxicity against human UACC62 assessed as cell growth at high concentration; type: functional
Malme-3M = assay: Cytotoxicity against human MALME-3M assessed as cell growth at high concentration; type: functional
SNB-19 = assay: Cytotoxicity against human SNB19 assessed as cell growth at high concentration; type: functional
SF-539 = assay: Cytotoxicity against human SF539 assessed as cell growth at high concentration; type: functional
EKVX = assay: Cytotoxicity against human EKVX assessed as cell growth at high concentration; type: functional
K562 = assay: Cytotoxicity against human K562 assessed as cell growth at high concentration; type: functional
[1] = Cytotoxicity against human MT4 cells by MTT assay; type: cell-based
[2] = Selectivity index, ratio of CC50 for human MT4 cells to IC50 for HIV1 3B; type: functional
SF-295 = assay: Cytotoxicity against human SF295 assessed as cell growth at high concentration; type: functional
HT-29 = assay: Cytotoxicity against human HT-29 assessed as cell growth at high concentration; type: functional
HCT-116 = assay: Cytotoxicity against human HCT116 assessed as cell growth at high concentration; type: functional
COLO 205 = assay: Cytotoxicity against human COLO205 assessed as cell growth at high concentration; type: functional
[3] = system: Human immunodeficiency virus 1; assay: Antiviral activity against HIV1 3B infected in MT4 cells assessed as inhibition of virus-induced cytopathogenicity by MTT assay; type: functional, organism-based; conditions: Human immunodeficiency virus 1, 3B
[4] = Cytotoxicity against human HEL cells assessed as alteration in cell morphology; type: cell-based
Cytomegalovirus = assay: Antiviral activity against Cytomegalovirus AD-169 infected in HEL cells assessed as reduction in plaque formation; type: functional, organism-based; conditions: Human betaherpesvirus 5, AD-169, HEL
Candida albicans [5] = assay: Antifungal activity against Candida albicans MTCC 227; type: functional
Aspergillus clavatus = assay: Antifungal activity against Aspergillus clavatus MTCC 1323 at 250 ug/ml after 74 hrs by Kirby-Bauer method; type: functional; conditions: MTCC 1323, 74 h, read-out: IZ
Candida albicans [6] = assay: Antifungal activity against Candida albicans MTCC 227 at 250 ug/ml after 74 hrs by Kirby-Bauer method; type: functional; conditions: MTCC 227, 74 h, read-out: IZ
Staphylococcus aureus = assay: Antibacterial activity against Staphylococcus aureus MTCC 96 after 24 hrs by broth dilution method; type: functional; conditions: MTCC 96, 24 h
Streptococcus pyogenes = assay: Antibacterial activity against Streptococcus pyogenes MTCC 442 at 250 ug/ml after 24 hrs by Kirby-Bauer method; type: functional; conditions: MTCC 442, 24 h, read-out: IZ
HL-60(TB) = assay: Cytotoxicity against human HL-60(TB) assessed as cell growth at high concentration; type: functional

Row | SMILES | Activity (Hs-578T) | Activity (MDA-MB-231) | Activity (TK-10) | Activity (UACC-62) | Activity (Malme-3M) | Activity (SNB-19) | Activity (SF-539) | Activity (EKVX) | Activity (K562) | CC50 [1] | Ratio CC50/IC50 [2] | Activity (SF-295) | Activity (HT-29) | Activity (HCT-116) | Activity (COLO 205) | IC50 [3] | MCC [4] | EC50 (Cytomegalovirus) | MIC (Candida albicans [5]) | zone of inhibition at 250 µg/mL (Aspergillus clavatus) | further results
1 | Cc1ccc(-[n+]2noc([O-])c2CN2CCN(c3cccc(Cl)c3)CC2)cc1 | 92.29% | 75.33% | 119.81% | 82.63% | 95.22% | 99.85% | 92.15% | 88.38% | 53.83% | 27.4 µg/mL (≈ 71.3 µM) | <1 | 78.19% | 90.87% | 82.24% | 89.45% | > 27.4 µg/mL | 100 µg/mL | 15.3 µg/mL (≈ 39.8 µM) | 200 µg/mL (≈ 520 µM) | 24 mm | zone of inhibition at 250 µg/mL (Candida albicans [6]): 21 mm; MIC (Staphylococcus aureus): 62.5 µg/mL (≈ 162 µM); zone of inhibition at 250 µg/mL (Streptococcus pyogenes): 20 mm
2 | Cc1ccc(-[n+]2noc([O-])c2CN2CCNCC2)cc1 | 101.05% | 86.16% | 102.68% | 93.66% | 109.79% | 103.47% | 101.2% | 104.33% | 120.22% | 32.6 µg/mL (≈ 119 µM) | <1 | 98.69% | 105.21% | 108.38% | 99.98% | > 32.6 µg/mL | 100 µg/mL | > 20 µg/mL | 200 µg/mL (≈ 729 µM) | 24 mm | Activity (HL-60(TB)): 118.68%; zone of inhibition at 250 µg/mL (Candida albicans [6]): 21 mm; MIC (Staphylococcus aureus): 200 µg/mL (≈ 729 µM); zone of inhibition at 250 µg/mL (Streptococcus pyogenes): 17 mm
